Results published in patent publication US9290481B2, “Monocyclic heteroaryl cycloalkyldiamine derivatives” (NOVARTIS AG, priority 2012, dated 2016).

How the values were obtained:
OCl-Ly3 cells = experiment: B-cell lymphoma cell proliferation (WST-1 assay), OCl-Ly3; format: cell-based; conditions: 4 days of incubation
Method: Cell proliferation was determined using the WST-1 assay (Roche, Mannheim, Germany), which measures the metabolic activity of the cells. […] The cell proliferation reagent WST-1 (10 μl/well) was added to the cells for 1-2 hours depending on the cell type which were cultured in 200 μl of medium. The absorbance was then measured with an enzyme-linked immunosorbent assay plate reader at a wavelength of 450 nm.

OCl-Ly10 cells = experiment: B-cell lymphoma cell proliferation (WST-1 assay), OCl-Ly10; format: cell-based; conditions: 72 h, 3 days of incubation
Method: Cell proliferation was determined using the WST-1 assay (Roche, Mannheim, Germany), which measures the metabolic activity of the cells. Briefly, 5×10^5 TMD-8, OCl-Ly3, and OCl-Ly10 cells/well and 10×10^5 HBL-1 cells/well were seeded in triplicate in 96-well plates and were incubated with various concentrations of compounds to be tested for 3 days. The cell proliferation reagent WST-1 (10 μl/well) was added to the cells for 1-2 hours depending on the cell type which were cultured in 200 μl of medium. The absorbance was then measured with an enzyme-linked immunosorbent assay plate reader at a wavelength of 450 nm.

## NC(=O)c1nnc(N[C@@H]2CCCC[C@@H]2N)nc1Nc1cccc2cc[nH]c12 [Example 1.1, 3-((1R,2S)-2-Amino-cyclohexylamino)-5-(1H-indol-7-ylamino)-[1,2,4]triazine-6-carboxylic acid amide]
OCl-Ly3 cells
  GI50: No inhibition
OCl-Ly10 cells
  GI50: 25 nM
